Usually Ki stands for a dissociation constant, usually derived from enzyme kinetics or from competition with a known ligand.

Among the data in PMC8766848, “The Structural Basis of Babesia orientalis Lactate Dehydrogenase” (Frontiers in Cellular and Infection Microbiology, 2022) are Ki values, retold here.

The experiment addresses T1, Babesia orientalis lactate dehydrogenase (BoLDH) (Babesia orientalis, UniProt A0A8X6EH37).
T1 construct: full-length ORF (330 residues), N-terminal His6 tag, recombinant rBoLDH
T1 sequence (A0A8X6EH37 1-330): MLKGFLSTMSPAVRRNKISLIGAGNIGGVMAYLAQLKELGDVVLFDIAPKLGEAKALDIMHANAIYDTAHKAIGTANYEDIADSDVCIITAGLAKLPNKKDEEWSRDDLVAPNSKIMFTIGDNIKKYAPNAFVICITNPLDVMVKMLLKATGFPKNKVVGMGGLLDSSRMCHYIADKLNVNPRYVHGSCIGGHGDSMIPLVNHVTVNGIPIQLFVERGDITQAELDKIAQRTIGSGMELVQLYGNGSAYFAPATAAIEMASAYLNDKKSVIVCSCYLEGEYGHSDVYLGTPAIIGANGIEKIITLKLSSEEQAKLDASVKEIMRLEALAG
Put plainly: Michaelis-Menten inhibition kinetics, lactate to pyruvate, NADH absorbance at […] nm, […] gossypol. It counts as biochemical.

As to `Cc1cc2c(C(C)C)c(O)c(O)c(C=O)c2c(O)c1-c1c(C)cc2c(C(C)C)c(O)c(O)c(C=O)c2c1O` [gossypol], the Ki came to 4.24 ± 0.25 µM.
